From patent publication US7678918B2, “Intermediates for imidazonaphthyridines” (3M Innovative Properties Company, priority 1997, dated 2010)

Assays:
IFN = assay: Cytokine Induction in Human Cells: interferon (IFN) secreted by PBMCs, A549/encephalomyocarditis bioassay; type: cell-based; conditions: 18 to 24 hours; also: call rule not given here
How it was run: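 Human PBMCs from healthy donors at 1.5-2×10^6 cells/mL in RPMI with 10% FBS, exposed to compounds (typically 0.1 to 100 μM, ≤1% DMSO) for 18 to 24 h at 37° C. Secreted IFN measured by A549/encephalomyocarditis virus cytopathic-effect bioassay, in alpha reference units/mL against NIH human leukocyte IFN standard.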

TNF = assay: Cytokine Induction in Human Cells: tumor necrosis factor (TNF) secreted by PBMCs, ELISA; type: cell-based; conditions: 18 to 24 hours; also: call rule not given here
How it was run: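 Human donor PBMCs at 1.5-2×10^6 cells/mL in RPMI with 10% FBS were exposed to compound, generally at 0.1 to 100 μM (≤1% DMSO final), for 18 to 24 h at 37 °C. Secreted TNF in supernatant was measured by ELISA and reported as pg/mL.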

interferon α = assay: Interferon (α) Induction in Human Cells (PBM's, 48 hours, A549 bioassay); type: cell-based; set-up: key: +: indicates that the compound induced interferon α at that particular concentration; −: indicates that the compound did not induce interferon α at that particular concentration; ±: indicates that the results were equivocal at that particular concentration; conditions: 48 hours incubation
How it was run: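 Human PBMCs at 1×10^6/mL in RPMI 1640 with 25 mM HEPES and 10% heat-inactivated autologous serum were exposed to compound (initially about 0.1–5 μg/mL, ≤1% ethanol/DMSO) for 48 hours at 37° C. Secreted interferon was quantified by A549 cytopathic-effect bioassay with encephalomyocarditis virus, expressed as alpha reference units/mL against NIH HU IF-L standard.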

Cc1nc2c(N)nc3cccnc3c2n1CC(C)C [Example 36, 2-Methyl-1-(2-methylpropyl)-1H-imidazo[4,5-c][1,5]naphthyridin-4-amine]
228 to 230 °C: melting point
−: TNF induction (TNF; Dose Concentration 1.0 μM) | TNF induction (TNF; Dose Concentration 100.0 μM) | Interferon (α) Induction in Human Cells (interferon α; Dose Concentration 0.01 μg/mL)
+: IFN induction (IFN; Dose Concentration 1.0 μM) | IFN induction (IFN; Dose Concentration 10.0 μM) | IFN induction (IFN; Dose Concentration 100.0 μM) | TNF induction (TNF; Dose Concentration 10.0 μM) | Interferon (α) Induction in Human Cells (interferon α; Dose Concentration 0.05 μg/mL) | Interferon (α) Induction in Human Cells (interferon α; Dose Concentration 0.10 μg/mL) | Interferon (α) Induction in Human Cells (interferon α; Dose Concentration 0.50 μg/mL) | Interferon (α) Induction in Human Cells (interferon α; Dose Concentration 1.0 μg/mL) | Interferon (α) Induction in Human Cells (interferon α; Dose Concentration 5.0 μg/mL) | Interferon (α) Induction in Human Cells (interferon α; Dose Concentration 10.0 μg/mL) | Interferon (α) Induction in Human Cells (interferon α; Dose Concentration 25.0 μg/mL) | Interferon (α) Induction in Human Cells (interferon α; Dose Concentration 50.0 μg/mL)
